Converted amounts (≈) assume the structure as drawn.

These results are taken from patent US20170114049A1, “2,5-DISUBSTITUTED CYCLOPENTANE CARBOXYLIC ACIDS FOR THE TREATMENT OF RESPIRATORY TRACT DISEASES” (BAYER PHARMA AKTIENGESELLSCHAFT, priority 2014, published 2017).

Data set [1] has as its target T1, human macrophage elastase (HME/hMMP-12) (Homo sapiens, UniProt P39900).
T1 construct: 0.5 nM HME; purchased R&D Systems 917-MP
In words: In vitro HME inhibition test (standard or high-sensitivity). As to conditions: standard or high-sensitivity HME inhibition test; read-out: HME/hMMP-12 IC50. The data set is classed as biochemical. On the procedure: The potency of the compounds according to the invention with respect to HME (MMP-12) is determined in an in vitro inhibition test. The HME-mediated amidolytic cleavage of a suitable peptide substrate leads to an increase in fluorescent light therein. The signal intensity of the fluorescent light is directly proportional to the enzyme activity. The active concentration of a test compound at which half the enzyme is inhibited (50% signal intensity of the fluorescent light) is reported as the IC50 value.
In a 384 hole microtiter plate, in a total test volume of 41 μl, the test buffer (0.1 M HEPES pH 7.4, 0.15 M NaCl, 0.03 M CaCl2, 0.004 mM ZnCl2, 0.02 M EDTA, 0.005% Brij®), the enzyme (0.5 nM HME; from R&D Systems, 917-MP, autocatalytic activation according to the manufacturer's instructions) and the intramolecularly quenched substrate [5 μM Mca-Pro-Leu-Gly-Leu-Glu-Glu-Ala-Dap(Dnp)-NH2; Bachem, M-2670] are incubated in the absence and presence of the test substance (as a solution in DMSO) at 37° C. for two hours. The fluorescence intensity of the test mixtures is measured (excitation […], emission 393 nm). The IC50 values are ascertained by plotting the fluorescent light intensity against the active ingredient concentration.
In this case, an enzyme concentration ten times lower is used (final concentration, for example, 0.05 nM) in order to achieve an elevated test sensitivity. The incubation period chosen for the test is correspondingly longer (for example 16 hours).

Data set [2] is described as follows: Determination of solubility in PBS buffer pH 6.5. The settings on record: PBS buffer pH 6.5, 1% DMSO, room temperature; for solubility at 24 h: PBS buffer, pH 6.5, aqueous buffer, kinetic from dmso stock; for Solubility: 24 h.
Protocol: The test substance is dissolved in DMSO. An aliquot is taken from this solution and introduced into PBS buffer pH 6.5 (DMSO content: 1%). This solution/suspension is agitated at room temperature for 24 h. After ultracentrifugation at 114000 g for 30 min, the supernatant is removed, diluted with acetonitrile/water 8:2 and analysed by LC-MSMS. Quantification is effected by means of a five-point calibration curve of the test compound in DMSO.
The next data set deals with rat hepatocytes. Nature of the data set: Hepatocyte assay for determination of metabolic stability. The settings on record: after incubation with rat hepatocytes.

T1 sequence (P39900 106-470): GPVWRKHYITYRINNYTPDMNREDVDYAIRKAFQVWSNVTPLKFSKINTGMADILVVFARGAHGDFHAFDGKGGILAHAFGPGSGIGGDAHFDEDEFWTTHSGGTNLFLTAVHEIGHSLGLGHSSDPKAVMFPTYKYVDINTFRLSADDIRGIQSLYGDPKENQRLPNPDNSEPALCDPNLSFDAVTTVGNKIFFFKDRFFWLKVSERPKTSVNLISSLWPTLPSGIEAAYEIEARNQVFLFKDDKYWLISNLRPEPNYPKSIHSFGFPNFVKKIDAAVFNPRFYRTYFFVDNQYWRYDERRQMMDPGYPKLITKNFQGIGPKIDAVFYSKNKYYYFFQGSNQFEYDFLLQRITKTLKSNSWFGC
Protocol for rat hepatocytes: Seven samples from the incubation solution are taken for the LC-MS analysis within a fixed time pattern, in order to determine the half-life (i.e. the degradation) of the particular compound. This half life is used to calculate various “Clearance” parameters (CL) and “Fmax” values (see below).
The CL and Fmax values are a measure of the phase 1 and phase 2 metabolism of the compounds in the hepatocytes. In order to minimize the influence of the organic solvent on the enzymes in the incubation batches, the concentration thereof is generally limited to 1% (acetonitrile) or 0.1% (DMSO).
For all species and breeds, a hepatocyte cell count in the liver of 1.1*10^8 cells/g of liver is expected.
The parameters calculated and the meanings thereof are: • Fmax well-stirred [%] maximum possible bioavailability after oral administration • Calculation: (1-CLblood well-stirred/QH)*100 • CLblood well-stirred [L/(h*kg)] calculated blood clearance (well-stirred model) • Calculation: (QH*CLintrinsic)/(QH+CL′intrinsic) • CL′intrinsic[ml/(min*kg)] maximum ability of the liver (of the hepatocytes) to metabolize a compound (assuming that the liver blood flow is not rate-limiting) • Calculation: CLintrinsic, apparent* species-specific hepatocyte count [1.1* 10^8/g liver]*species-specific liver weight [g/kg] • CL′intrinsic, apparent[ml/(min*mg)] normalizes the elimination constant by dividing it by the hepatocyte cell count x used (x*10^6/ml) • Calculation: kcl[1/min]/(cell count [x*10^6]/incubation volume [ml]) • (QH=species-specific liver blood flow).

For `Cc1ccc2nnn(C[C@H]3CC[C@@H](C(=O)c4ccc(OCC5CCOCC5)cc4)[C@@H]3C(=O)O)c(=O)c2c1` (single isomer, unassigned) [Example 18, (−)-(1RS,2SR,5RS)-2-[(6-Methyl-4-oxo-1,2,3-benzotriazin-3(4H)-yl)methyl]-5-[4-(tetrahydro-2H-pyran-4-ylmethoxy)benzoyl]cyclopentanecarboxylic acid], in data set [1], the IC50 was 3.3 nM.

Consider `O=C(O)[C@@H]1[C@@H](Cn2nnc3ccc(C(F)(F)F)cc3c2=O)CC[C@H]1C(=O)c1ccc(SCC2CCOCC2)cc1` (single isomer, unassigned) [Example 14, (−)-(1RS,2SR,5RS)-2-{[4-Oxo-6-(trifluoromethyl)-1,2,3-benzotriazin-3(4H)-yl]methyl}-5-{4-[(tetrahydro-2H-pyran-4-ylmethyl)sulphanyl]benzoyl}cyclopentanecarboxylic acid], for which the solubility (commonly the dissolved amount per volume that the medium holds) at 24 h in data set [2] amounted to 80 µg/mL (≈ 139 µM). Besides, the IC50 in data set [1] is 10 nM.

For the molecule `O=C(O)[C@@H]1[C@@H](Cn2nnc3ccc(C(F)(F)F)cc3c2=O)CC[C@H]1C(=O)c1ccc(OCCC2CCOCC2)cc1` (stereo in doubt) [Example 12, (−)-(1RS,2SR,5RS)-2-{[4-Oxo-6-(trifluoromethyl)-1,2,3-benzotriazin-3(4H)-yl]methyl}-5-{4-[2-(tetrahydro-2H-pyran-4-yl)ethoxy]benzoyl}cyclopentanecarboxylic acid], in data set [2], the Solubility – broadly, the dissolved amount per volume that the medium holds – came to 240 µg/mL (≈ 418 µM). For the same molecule, in data set [1], the IC50 came out at 90 nM.

`Cc1ccc2nnn(C[C@H]3CC[C@@H](C(=O)c4ccc(OCC5CCOCC5)cc4)[C@@H]3C(=O)O)c(=O)c2c1` (single isomer, unassigned) [Example 17, (+)-(1RS,2SR,5RS)-2-[(6-Methyl-4-oxo-1,2,3-benzotriazin-3(4H)-yl)methyl]-5-[4-(tetrahydro-2H-pyran-4-ylmethoxy)benzoyl]cyclopentanecarboxylic acid] returned a solubility at 24 h in data set [2] of 250 µg/mL (≈ 494 µM). In addition, in data set [1], the IC50 is 0.03 nM.

For the molecule `O=C(O)[C@@H]1[C@@H](Cn2nnc3ccc(C(F)(F)F)cc3c2=O)CC[C@H]1C(=O)c1ccc(OCCC2CCOCC2)cc1` (racemic) [Example 11, (+)-(1RS,2SR,5RS)-2-{[4-Oxo-6-(trifluoromethyl)-1,2,3-benzotriazin-3(4H)-yl]methyl}-5-{4-[2-(tetrahydro-2H-pyran-4-yl)ethoxy]benzoyl}cyclopentanecarboxylic acid], in the data set on rat hepatocytes, the “CLblood (calculated blood clearance, well-stirred)” value is 5 mL/min/kg and the “Fmax (maximum possible bioavailability after oral administration, well-stirred)” value (“Fmax” below) was determined as 92.9%.

On to “(−)-(1RS,2SR,5RS)-2-{[4-Oxo-6-(trifluoromethyl)-1,2,3-benzotriazin-3(4H)-yl]methyl}-5-[4-(tetra-hydro-2H-pyran-4-ylmethoxy)benzoyl]cyclopentanecarboxylic acid [Example 9]”, for which the IC50 in data set [1] came to 42 nM.

Regarding `Cc1ccc2nnn(C[C@@H]3CC[C@H](C(=O)c4ccc(OCC5CCOCC5)cc4)[C@H]3C(=O)O)c(=O)c2c1` (racemic) [Example 16, (+/−)-(1RS,2SR,5RS)-2-[(6-Methyl-4-oxo-1,2,3-benzotriazin-3(4H)-yl)methyl]-5-[4-(tetrahydro-2H-pyran-4-ylmethoxy)benzoyl]cyclopentanecarboxylic acid], the IC50 in data set [1] is 0.17 nM.

Consider `Cc1ccc2nnn(C[C@H]3CC[C@@H](C(=O)c4ccc(OCCC5CCOCC5)cc4)[C@@H]3C(=O)O)c(=O)c2c1` (single isomer, unassigned) [Example 21, (−)-(1RS,2SR,5RS)-2-[(6-Methyl-4-oxo-1,2,3-benzotriazin-3(4H)-yl)methyl]-5-{4-[2-(tetrahydro-2H-pyran-4-yl)ethoxy]benzoyl}cyclopentanecarboxylic acid], for which the IC50 in data set [1] was determined as 78 nM.

Regarding `O=C(O)[C@@H]1[C@@H](Cn2nnc3ccccc3c2=O)CC[C@H]1C(=O)c1ccc(OCCC2CCOCC2)cc1` (racemic) [Example 5, (+)-(1RS,2SR,5RS)-2-[(4-Oxo-1,2,3-benzotriazin-3(4H)-yl)methyl]-5-{4-[2-(tetrahydro-2H-pyran-4-yl)ethoxy]benzoyl}cyclopentanecarboxylic acid], in the data set with rat hepatocytes, the “CLblood (calculated blood clearance, well-stirred)” value is 14.5 mL/min/kg and the “Fmax” value came to 79.2%.

Consider `Cc1ccc2nnn(C[C@H]3CC[C@@H](C(=O)c4ccc(OCCC5CCOCC5)cc4)[C@@H]3C(=O)O)c(=O)c2c1` (racemic) [Example 20, (+)-(1RS,2SR,5RS)-2-[(6-Methyl-4-oxo-1,2,3-benzotriazin-3(4H)-yl)methyl]-5-{4-[2-(tetrahydro-2H-pyran-4-yl)ethoxy]benzoyl}cyclopentanecarboxylic acid], for which, in the data set on rat hepatocytes, the “CLblood (calculated blood clearance, well-stirred)” value was 12.8 mL/min/kg and the “Fmax” value is listed as 81.8%.

In turn, `Cc1ccc2nnn(C[C@H]3CC[C@@H](C(=O)c4ccc(OCC5CCOCC5)cc4)[C@@H]3C(=O)O)c(=O)c2c1` (racemic) [Example 18, (−)-(1RS,2SR,5RS)-2-[(6-Methyl-4-oxo-1,2,3-benzotriazin-3(4H)-yl)methyl]-5-[4-(tetrahydro-2H-pyran-4-ylmethoxy)benzoyl]cyclopentanecarboxylic acid] displayed a Solubility in data set [2] of 330 µg/mL (≈ 653 µM).

Turning to `O=C(O)[C@@H]1[C@@H](Cn2nnc3ccc(C(F)(F)F)cc3c2=O)CC[C@H]1C(=O)c1ccc(SCC2CCOCC2)cc1` (racemic) [Example 15, (+)-(1RS,2SR,5RS)-2-{[4-Oxo-6-(trifluoromethyl)-1,2,3-benzotriazin-3(4H)-yl]methyl}-5-{4-[(tetrahydro-2H-pyran-4-ylmethyl)sulphanyl]benzoyl}cyclopentanecarboxylic acid], in the data set on rat hepatocytes, the “CLblood (calculated blood clearance, well-stirred)” value is 2.67 mL/min/kg and the “Fmax” value is 96.1%. This molecule registered a Solubility in data set [2] of 100 µg/mL (≈ 174 µM).

For `O=C(O)[C@@H]1[C@@H](Cn2nnc3ccccc3c2=O)CC[C@H]1C(=O)c1ccc(OCCC2CCOCC2)cc1` (stereo in doubt) [Example 6, (−)-(1RS,2SR,5RS)-2-[(4-Oxo-1,2,3-benzotriazin-3(4H)-yl)methyl]-5-{4-[2-(tetrahydro-2H-pyran-4-yl)ethoxy]benzoyl}cyclopentanecarboxylic acid], in data set [2], the Solubility turned out to be 354.9 µg/mL (≈ 702 µM). Further, in data set [1], the IC50 is 80 nM.

Regarding `O=C(O)[C@H]1[C@H](Cn2nnc3ccc(C(F)(F)F)cc3c2=O)CC[C@@H]1C(=O)c1ccc(SCC2CCOCC2)cc1` (racemic) [Example 13, (+/−)-(1RS,2SR,5RS)-2-{[4-Oxo-6-(trifluoromethyl)-1,2,3-benzotriazin-3 (4H)-yl]methyl}-5-{4-[(tetrahydro-2H-pyran-4-ylmethyl)sulphanyl]benzoyl}cyclopentanecarboxylic acid], in data set [1], the IC50 came to 0.48 nM.
